Source: article PMC7217030 (Journal of medicinal chemistry, 2018)

What was measured:
ovariectomized mice [1] = assay: Object recognition task; conditions: for preference for novel object vs chance, object recognition: IP injection
[2] = molecular target: T1, mineralocorticoid receptor (MR) LBD fused to GAL4 DBD (Homo sapiens, UniProt P08235); assay: GeneBLAzer nuclear hormone receptor specificity assay, agonist mode, MR; type: cell-based; conditions: 0.25 to 25 μM
T1 sequence (P08235 726-964 limits assumed): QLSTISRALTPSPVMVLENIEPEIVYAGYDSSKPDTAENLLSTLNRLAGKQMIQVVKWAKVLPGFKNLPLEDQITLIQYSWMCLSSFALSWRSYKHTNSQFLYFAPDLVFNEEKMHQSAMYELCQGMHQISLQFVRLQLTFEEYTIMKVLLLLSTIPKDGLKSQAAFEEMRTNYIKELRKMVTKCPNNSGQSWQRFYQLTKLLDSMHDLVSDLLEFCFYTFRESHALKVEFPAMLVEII

ERα LBD = molecular target: T2, ERα LBD (Homo sapiens, UniProt P03372); assay: LanthaScreen TR-FRET coactivator; type: biochemical
T2 sequence (P03372 311-547 limits assumed): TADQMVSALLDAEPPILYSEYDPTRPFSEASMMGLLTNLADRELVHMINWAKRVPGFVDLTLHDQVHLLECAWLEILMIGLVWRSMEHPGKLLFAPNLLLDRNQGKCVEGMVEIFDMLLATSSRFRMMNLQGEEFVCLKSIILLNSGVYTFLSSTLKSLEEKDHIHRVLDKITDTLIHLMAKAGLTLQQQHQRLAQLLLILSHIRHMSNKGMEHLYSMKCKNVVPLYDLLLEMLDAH

[3] = molecular target: T3, peroxisome proliferator-activated receptor (PPARδ) LBD fused to GAL4 DBD (Homo sapiens, UniProt Q03181); assay: GeneBLAzer nuclear hormone receptor specificity assay, agonist mode, PPARδ; type: cell-based; conditions: 0.25 to 25 μM
T3 sequence (Q03181 211-439 limits assumed): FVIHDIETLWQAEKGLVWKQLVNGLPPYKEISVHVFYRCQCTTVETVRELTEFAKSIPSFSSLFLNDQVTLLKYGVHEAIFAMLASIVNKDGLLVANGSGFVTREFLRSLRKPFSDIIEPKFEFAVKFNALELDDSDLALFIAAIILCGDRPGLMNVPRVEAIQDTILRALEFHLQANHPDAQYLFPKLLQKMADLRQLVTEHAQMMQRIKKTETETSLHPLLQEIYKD

[4] = molecular target: T4, glucocorticoid receptor (GR) LBD fused to GAL4 DBD (Homo sapiens, UniProt P04150); assay: GeneBLAzer nuclear hormone receptor specificity assay, agonist mode, GR; type: cell-based; conditions: 0.25 to 25 μM
T4 sequence (P04150 524-758 limits assumed): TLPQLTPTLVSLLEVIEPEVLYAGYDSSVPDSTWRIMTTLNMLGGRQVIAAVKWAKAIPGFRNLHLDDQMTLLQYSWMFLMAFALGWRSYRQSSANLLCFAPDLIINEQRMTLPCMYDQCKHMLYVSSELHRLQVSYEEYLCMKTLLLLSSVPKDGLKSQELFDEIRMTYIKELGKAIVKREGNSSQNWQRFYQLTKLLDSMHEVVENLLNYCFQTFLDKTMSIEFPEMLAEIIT

[5] = molecular target: T5, full length and native ERα (Homo sapiens, UniProt P03372); assay: Cell-based transcriptional assay, ERα antagonist mode; conditions: concentrations up to 10 μM
T5 sequence (P03372 1-595): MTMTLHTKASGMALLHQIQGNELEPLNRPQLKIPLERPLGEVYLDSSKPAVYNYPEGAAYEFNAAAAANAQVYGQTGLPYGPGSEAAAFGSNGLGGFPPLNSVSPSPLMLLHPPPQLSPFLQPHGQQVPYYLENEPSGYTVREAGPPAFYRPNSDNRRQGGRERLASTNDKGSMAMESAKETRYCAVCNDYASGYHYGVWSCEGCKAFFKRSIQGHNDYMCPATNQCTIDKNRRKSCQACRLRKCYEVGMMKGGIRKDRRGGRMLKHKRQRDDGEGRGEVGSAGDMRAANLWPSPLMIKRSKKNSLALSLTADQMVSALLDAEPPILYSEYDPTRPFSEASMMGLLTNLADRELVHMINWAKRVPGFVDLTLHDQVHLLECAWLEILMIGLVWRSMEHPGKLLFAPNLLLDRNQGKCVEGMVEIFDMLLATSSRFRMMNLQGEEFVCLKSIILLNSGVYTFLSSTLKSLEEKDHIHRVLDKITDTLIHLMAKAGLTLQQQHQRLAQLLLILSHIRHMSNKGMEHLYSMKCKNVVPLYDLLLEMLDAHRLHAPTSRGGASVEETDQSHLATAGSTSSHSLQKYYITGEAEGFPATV

CYP2D6 = CYP2D6 (Homo sapiens, UniProt P10635); assay: P450-Glo cytochrome P450 inhibition, CYP2D6; type: in vitro ADME; conditions: highest concentration 62.5 μM
[6] = molecular target: T6, progesterone receptor (PR) LBD fused to GAL4 DBD (Homo sapiens, UniProt P06401); assay: GeneBLAzer nuclear hormone receptor specificity assay, agonist mode, PR; type: cell-based; conditions: 0.25 to 25 μM
T6 sequence (P06401 679-913 limits assumed): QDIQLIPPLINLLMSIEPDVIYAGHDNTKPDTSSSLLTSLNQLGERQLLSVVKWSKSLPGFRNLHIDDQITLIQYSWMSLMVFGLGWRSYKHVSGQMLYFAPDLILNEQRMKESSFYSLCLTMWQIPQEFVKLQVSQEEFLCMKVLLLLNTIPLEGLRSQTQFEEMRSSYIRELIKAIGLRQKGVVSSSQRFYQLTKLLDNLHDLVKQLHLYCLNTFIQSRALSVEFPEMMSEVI

[7] = molecular target: T7, vitamin D receptor (VDR) LBD fused to GAL4 DBD (Homo sapiens, UniProt P11473); assay: GeneBLAzer nuclear hormone receptor specificity assay, agonist mode, VDR; type: cell-based; conditions: 0.25 to 25 μM
T7 sequence (P11473 127-423 limits assumed): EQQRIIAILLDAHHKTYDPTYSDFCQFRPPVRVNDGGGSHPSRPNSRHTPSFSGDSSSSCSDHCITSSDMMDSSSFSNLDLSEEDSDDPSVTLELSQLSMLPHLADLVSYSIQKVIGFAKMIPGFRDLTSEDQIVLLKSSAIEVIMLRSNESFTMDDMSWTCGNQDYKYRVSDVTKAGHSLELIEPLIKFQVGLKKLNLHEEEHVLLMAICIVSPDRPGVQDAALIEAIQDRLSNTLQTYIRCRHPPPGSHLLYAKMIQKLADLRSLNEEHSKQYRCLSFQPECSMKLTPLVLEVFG

[8] = molecular target: T8, androgen receptor (AR) LBD fused to GAL4 DBD (Homo sapiens, UniProt P10275); assay: GeneBLAzer nuclear hormone receptor specificity assay, agonist mode, AR; type: cell-based; conditions: 0.25 to 25 μM
T8 sequence (P10275 669-900 limits assumed): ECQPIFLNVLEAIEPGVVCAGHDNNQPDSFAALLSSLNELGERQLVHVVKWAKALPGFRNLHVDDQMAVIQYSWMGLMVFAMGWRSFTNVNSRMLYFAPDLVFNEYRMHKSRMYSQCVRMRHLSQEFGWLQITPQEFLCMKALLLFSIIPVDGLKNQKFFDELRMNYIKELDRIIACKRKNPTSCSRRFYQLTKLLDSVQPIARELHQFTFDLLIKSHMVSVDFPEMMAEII

CYP1A2 = molecular target: T9, CYP1A2 (Homo sapiens, UniProt P05177); assay: P450-Glo cytochrome P450 inhibition, CYP1A2; type: in vitro ADME; conditions: highest concentration 62.5 μM
T9 sequence (P05177 1-516): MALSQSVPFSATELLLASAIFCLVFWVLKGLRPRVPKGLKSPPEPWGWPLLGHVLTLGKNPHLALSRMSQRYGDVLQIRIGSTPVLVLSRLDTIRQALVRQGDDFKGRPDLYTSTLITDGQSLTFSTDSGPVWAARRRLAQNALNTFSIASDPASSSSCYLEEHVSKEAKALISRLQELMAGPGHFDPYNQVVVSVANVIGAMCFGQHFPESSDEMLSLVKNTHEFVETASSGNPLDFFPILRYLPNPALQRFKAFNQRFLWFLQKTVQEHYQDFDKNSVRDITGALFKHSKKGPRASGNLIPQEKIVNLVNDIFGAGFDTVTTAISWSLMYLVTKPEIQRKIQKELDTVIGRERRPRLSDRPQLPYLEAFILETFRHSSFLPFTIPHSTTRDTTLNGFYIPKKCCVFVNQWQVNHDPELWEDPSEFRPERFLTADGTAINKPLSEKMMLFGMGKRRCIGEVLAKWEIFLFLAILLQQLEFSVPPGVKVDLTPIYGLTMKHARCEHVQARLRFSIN

ovariectomized mice [9] = assay: Object placement task; conditions: for time with moved object vs chance, object placement: tested 24 h after training; for preference for moved object vs chance, object placement: within 1 month of ovariectomy
[10] = molecular target: T10, thyroid hormone receptor (TRβ) LBD fused to GAL4 DBD (Homo sapiens, UniProt P10828); assay: GeneBLAzer nuclear hormone receptor specificity assay, agonist mode, TRβ; type: cell-based; conditions: 0.25 to 25 μM
T10 sequence (P10828 217-461 limits assumed): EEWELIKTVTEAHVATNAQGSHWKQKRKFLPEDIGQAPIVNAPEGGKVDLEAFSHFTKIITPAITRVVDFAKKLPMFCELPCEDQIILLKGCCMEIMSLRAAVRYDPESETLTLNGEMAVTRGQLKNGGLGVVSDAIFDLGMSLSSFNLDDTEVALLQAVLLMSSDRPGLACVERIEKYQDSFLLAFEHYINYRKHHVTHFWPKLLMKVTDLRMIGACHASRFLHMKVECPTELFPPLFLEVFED

CYP2D6, sequence (P10635 whole entry, the tested form may be a part): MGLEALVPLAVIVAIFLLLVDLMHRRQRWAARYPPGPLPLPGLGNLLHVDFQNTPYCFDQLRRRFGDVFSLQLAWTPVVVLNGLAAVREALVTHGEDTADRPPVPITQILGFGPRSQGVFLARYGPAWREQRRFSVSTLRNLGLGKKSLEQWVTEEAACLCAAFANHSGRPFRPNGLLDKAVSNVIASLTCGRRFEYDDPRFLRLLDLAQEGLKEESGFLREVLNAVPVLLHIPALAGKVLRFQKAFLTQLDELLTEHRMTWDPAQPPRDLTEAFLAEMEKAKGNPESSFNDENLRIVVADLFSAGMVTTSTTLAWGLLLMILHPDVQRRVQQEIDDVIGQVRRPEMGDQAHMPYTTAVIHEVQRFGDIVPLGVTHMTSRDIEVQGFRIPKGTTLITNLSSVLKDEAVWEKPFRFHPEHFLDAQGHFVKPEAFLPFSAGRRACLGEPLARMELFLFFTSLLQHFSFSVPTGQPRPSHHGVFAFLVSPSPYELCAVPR

## OC[C@H]1CC[C@H](c2ccc(O)cc2)CC1 [ISP358–2]
Ovariectomized mice [1]; 0.5 mg/kg, tested 48 h after training
  preference for novel object vs chance, object recognition: exhibited a significant preference for the novel object relative to chance
Ovariectomized mice [1]; 5 mg/kg, tested 48 h after training
  preference for novel object vs chance, object recognition: somewhat of a trend for the 5 mg/kg ISP358–2 to prefer the novel object
Ovariectomized mice [1]; dorsal hippocampal infusion, 10 pg/hemisphere, tested 48 h after training
  time with novel object vs chance, object recognition: Neither the vehicle nor 10 pg of ISP358–2 groups showed a preference for the novel object
Ovariectomized mice [1]; dorsal hippocampal infusion, 100 pg/hemisphere, tested 48 h after training
  time with novel object vs chance, object recognition: spent significantly more time than chance with the novel object
Ovariectomized mice [1]; dorsal hippocampal infusion, 1 ng/hemisphere, tested 48 h after training
  time with novel object vs chance, object recognition: spent significantly more time than chance with the novel object
Ovariectomized mice [1]; oral gavage, 0.5 mg/kg
  time with novel object vs chance, object recognition: spent significantly more time with the novel object relative to chance
Ovariectomized mice [1]; oral gavage, 5 mg/kg
  time with novel object vs chance, object recognition: spent significantly more time with the novel object relative to chance
[2]
  agonist activity at MR: not an agonist
ERα LBD
  EC50: 2940 nM
[3]
  agonist activity at PPARδ: not an agonist
[4]
  agonist activity at GR: not an agonist
[5]
  ERα antagonist activity: No measurable antagonist activity
CYP2D6
  inhibition of CYP2D6: no inhibition
[6]
  agonist activity at PR: not an agonist
[7]
  agonist activity at VDR: not an agonist
[8]
  agonist activity at AR: not an agonist
CYP1A2
  inhibition of CYP1A2: no inhibition
Ovariectomized mice [9]; IP injection, 0.5 mg/kg
  time with moved object vs chance, object placement: spent significantly more time than chance with the moved object
Ovariectomized mice [9]; IP injection, 5 mg/kg
  time with moved object vs chance, object placement: spent significantly more time than chance with the moved object
Ovariectomized mice [9]; dorsal hippocampal infusion, 10 pg/hemisphere
  time with moved object vs chance, object placement: did not spend significantly more time than chance with the moved object
Ovariectomized mice [9]; dorsal hippocampal infusion, 100 pg/hemisphere
  time with moved object vs chance, object placement: spent significantly more time than chance with the moved object
Ovariectomized mice [9]; dorsal hippocampal infusion, 1 ng/hemisphere
  time with moved object vs chance, object placement: spent significantly more time than chance with the moved object
Ovariectomized mice [9]; oral gavage, 0.5 mg/kg
  preference for moved object vs chance, object placement: exhibited a significant preference for the moved object relative to chance
Ovariectomized mice [9]; oral gavage, 5 mg/kg
  preference for moved object vs chance, object placement: exhibited a significant preference for the moved object relative to chance
Ovariectomized mice [9]; oral gavage, same doses, 4 months after ovariectomy, preliminary
  spatial memory consolidation after long-term estrogen deprivation, object placement: did not enhance spatial memory consolidation
[10]
  agonist activity at TRβ: not an agonist
